Results reported in patent publication US7662789B2, “Peptide substance restoring myocardium function” (“Access Bioscience” CJSC, priority 2004, dated 2010).
Where a SMILES comes first, the peptide text is derived from it.

System: male guinea pigs
Assay: Chronic toxicity, 6 months intramuscular in guinea pigs
Procedure: Common toxicity of Ala-Glu-Asp-Arg (SEQ ID NO:1) tetrapeptide was studied in compliance with the requirements stated in “Manual for experimental (pre-clinical) study of new pharmaceutical substances” (2000): acute toxicity in case of single administration of the substance, as well as sub-acute and chronic toxicity in case of long-term administration of the tetrapeptide.
The studies of chronic toxicity were conducted for 6 months, basing on the duration of the recommended clinical administration of the preparation, on 96 male guinea pigs with body weight of 300-340 g. The experimental animals received the tetrapeptide daily, once a day, intramuscularly, for 6 months in the doses of 1 μg/kg, 0.1 mg/kg and 1 mg/kg in 0.5 ml of 0.9% NaCl solution. The control animals received 0.9% NaCl solution in the same volume and by the same schedule. Common methods were used for the identification of the quantity of erythrocytes, hemoglobin, reticulocytes, thrombocytes, leukocytes, as well as of the leukocyte formula, erythrocyte sedimentation rate (ESR) and erythrocyte resistance in the peripheric blood of the animals. Alongside with this general protein content in the blood serum was estimated by Lowry's method, as well as of potassium and sodium using the method of plasma spectrophotometry. After the completion of the experiment the pathomorphological study of the brain and spinal cord, spinal cord ganglia, thyroid gland, parathyroid glands, adrenal glands, testis, pituitary gland, heart, lungs, aorta, liver, kidney, urinary bladder, pancreas, stomach, small intestine, large intestine, thymus, spleen, lymph nodes and bone marrow was conducted.

C[C@H](N)C(=O)N[C@@H](CCC(=O)O)C(=O)N[C@@H](CC(=O)O)C(=O)N[C@@H](CCCNC(=N)N)C(=O)O [Tetrapeptide, L-alanyl-L-glutamyl-L-aspartyl-L-arginine] (H-AEDR-OH)
Basophils (1 μg/kg, 3 months): 0.69 ± 0.05% | ESR (1 μg/kg, 3 months): 1.87 ± 0.07 mm/hour | Eosinophils (1 μg/kg, 3 months): 0.64 ± 0.04% | Erythrocyte resistance, minimum (1 μg/kg, 3 months): 0.33 ± 0.02 % NaCl | Erythrocytes (1 μg/kg, 3 months): 5.4 ± 0.2 ×10^12/l | General protein in the blood serum (1 μg/kg, 3 months): 72.6 ± 3.3 g/L | Hemoglobin (1 μg/kg, 3 months): 13.8 ± 1.2 | Leukocytes (1 μg/kg, 3 months): 11.2 ± 0.8 ×10^9/l | Lymphocytes (1 μg/kg, 3 months): 50.7 ± 2.4% | Monocytes (1 μg/kg, 3 months): 2.4 ± 0.03% | Potassium in the blood serum (1 μg/kg, 3 months): 5.3 ± 1.8 mmol/L | Reticulocytes (1 μg/kg, 3 months): 1.2 ± 0.07% | Segmented neutrophils (1 μg/kg, 3 months): 44.9 ± 2.5% | Sodium in the blood serum (1 μg/kg, 3 months): 154.8 ± 6.8 mmol/L | Stab neutrophils (1 μg/kg, 3 months): 0.27 ± 0.07% | Thrombocytes (1 μg/kg, 3 months): 143.6 ± 8.4 ×10^9/l | Basophils (1 μg/kg, 6 months): 0.71 ± 0.05% | ESR (1 μg/kg, 6 months): 2.05 ± 0.04 mm/hour | Eosinophils (1 μg/kg, 6 months): 0.75 ± 0.08% | Erythrocyte resistance, maximum (1 μg/kg, 6 months): 0.44 ± 0.04 % NaCl | Erythrocyte resistance, minimum (1 μg/kg, 6 months): 0.35 ± 0.05 % NaCl | Erythrocytes (1 μg/kg, 6 months): 5.2 ± 0.4 ×10^12/l | General protein in the blood serum (1 μg/kg, 6 months): 73.1 ± 3.6 g/L | Hemoglobin (1 μg/kg, 6 months): 14.2 ± 0.6 | Leukocytes (1 μg/kg, 6 months): 11.9 ± 0.5 ×10^9/l | Lymphocytes (1 μg/kg, 6 months): 52.7 ± 2.2% | Monocytes (1 μg/kg, 6 months): 2.5 ± 0.05% | Potassium in the blood serum (1 μg/kg, 6 months): 5.4 ± 2.2 mmol/L | Reticulocytes (1 μg/kg, 6 months): 1.3 ± 0.08% | Segmented neutrophils (1 μg/kg, 6 months): 43.4 ± 3.2% | Sodium in the blood serum (1 μg/kg, 6 months): 154.6 ± 6.9 mmol/L | Stab neutrophils (1 μg/kg, 6 months): 0.36 ± 0.05% | Thrombocytes (1 μg/kg, 6 months): 144.9 ± 9.8 ×10^9/l | Chronic toxicity, side effects (6 months i.m. daily, 1 μg/kg, 0.1 mg/kg, 1 mg/kg, 100-1000 times the therapeutic doses): absence of side effects | General status, blood indices, internal organs, cardiovascular, respiratory, liver and kidney functions (long-term administration): no pathologic changes
